Literature values in PMC9199361 (Inorganic chemistry, 2020).

Key:
[1] = for log KML: copper(II) complex of the chelator
[2] = copper complex of the chelator
[3] = 5 M HCl, 90 °C

Compound	log KML [1]	E1/2 (V) [2] [V]	reversibility of the redox event at E1/2 [2]	acid stability (conditions) [3]	thermodynamic stability constant (log KML) ([1]; copper(II) complex)
O=C(O)CN1CCCN(CC(=O)O)CCN(CC(=O)O)CCCN(CC(=O)O)CC1 [TETA]	21.9	−0.980	irrev	<4.5 min (5 M HCl, 90 °C)	–
O=C(O)CN1CCCN2CCN(CCCN(CC(=O)O)CC2)CC1 [CB-TE2A]	27.1	−0.88	quasi-rev	254 h (5 M HCl, 90 °C)	–
O=C(O)CN1CCN(CC(=O)O)CCN(CC(=O)O)CC1 [NOTA]	–	–	irrev	<3 min (5 M HCl, 90 °C)	21.9
